Experimental findings from US10246469B2, “Biaryl kinase inhibitors” (BRISTOL-MYERS SQUIBB COMPANY, priority 2015, dated 2019) are described below.

In the assay the target is T1, GST-Xa-hAAK1 (Homo sapiens, UniProt Q2M2I8).
T1 construct: GST (N); Factor Xa cleavage site (Xa) (internal); made in house
The experiment in a line: AAK1 Kinase Assay. The class given is biochemical. To be noted: bacterially expressed GST-Xa-hAAK1 3.5 nM; ATP 22 μM; fluoresceinated peptide 1.5 μM; 3 hours at room temperature; Caliper LabChip 3000. On the procedure:
The assays were performed in U-bottom 384-well plates. The final assay volume was 30 μl prepared from 15 μl additions of enzyme and substrates (fluoresceinated peptide (5-FAM)-Aha-[…]-NH2 and ATP) and test compounds in assay buffer (10 mM Tris-HCL pH 7.4, 10 mM MgCl2, 0.01% Tween-20 and 1.0 mM DTT). The reactions were initiated by the combination of bacterially expressed, GST-Xa-hAAK1 with substrates and test compounds. The reactions were incubated at room temperature for 3 hours and terminated by adding 60 μl of 35 mM EDTA buffer to each sample. The reactions were analyzed on the Caliper LabChip 3000 (Caliper, Hopkinton, Mass.) by electrophoretic separation of the fluorescent substrate and phosphorylated product. […] The final concentration of reagents in the assays are ATP, 22 μM; (5-FAM)-Aha-[…]-NH2, 1.5 μM; GST-Xa-hAAK1, 3.5 nM; and DMSO, 1.6%. […] Compounds were dissolved at 10 mM in dimethylsulfoxide (DMSO) and evaluated at eleven concentrations. IC50 values were derived by non-linear regression analysis.

T1 sequence (Q2M2I8 whole entry): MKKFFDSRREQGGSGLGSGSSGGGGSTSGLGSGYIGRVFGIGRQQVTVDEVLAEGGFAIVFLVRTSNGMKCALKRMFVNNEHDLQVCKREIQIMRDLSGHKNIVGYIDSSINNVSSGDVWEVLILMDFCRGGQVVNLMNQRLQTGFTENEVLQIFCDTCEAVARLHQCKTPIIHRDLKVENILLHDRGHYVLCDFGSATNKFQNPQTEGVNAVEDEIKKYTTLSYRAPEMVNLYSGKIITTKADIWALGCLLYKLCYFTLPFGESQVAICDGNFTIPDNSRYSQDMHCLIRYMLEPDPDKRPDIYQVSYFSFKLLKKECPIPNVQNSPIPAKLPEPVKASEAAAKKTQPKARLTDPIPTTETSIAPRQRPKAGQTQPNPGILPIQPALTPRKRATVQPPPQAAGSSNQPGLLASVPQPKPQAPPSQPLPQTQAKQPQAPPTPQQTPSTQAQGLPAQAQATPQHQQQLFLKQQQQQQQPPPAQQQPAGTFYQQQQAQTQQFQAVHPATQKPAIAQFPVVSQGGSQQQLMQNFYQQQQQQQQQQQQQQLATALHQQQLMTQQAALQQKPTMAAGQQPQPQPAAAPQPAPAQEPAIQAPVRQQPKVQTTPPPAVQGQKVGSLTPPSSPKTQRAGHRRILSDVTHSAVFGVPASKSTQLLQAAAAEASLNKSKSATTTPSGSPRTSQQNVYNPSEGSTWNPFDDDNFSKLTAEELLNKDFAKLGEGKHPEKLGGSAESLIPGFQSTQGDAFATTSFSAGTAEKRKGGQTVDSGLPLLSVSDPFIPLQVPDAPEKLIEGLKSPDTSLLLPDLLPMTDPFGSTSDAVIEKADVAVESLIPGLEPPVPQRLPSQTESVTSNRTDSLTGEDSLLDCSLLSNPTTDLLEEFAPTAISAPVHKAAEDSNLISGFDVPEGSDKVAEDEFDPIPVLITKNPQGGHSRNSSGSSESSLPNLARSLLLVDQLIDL

Broadly, the IC50 is the midpoint of a concentration-inhibition curve. As for `CC(C)C[C@](C)(N)COc1ccc(-c2ccnc(NC3CCCOC3)c2)cc1Cl` (mixture of isomers) [Example 338, 4-(4-(((S)-2-amino-2,4-dimethylpentyl)oxy)-3-chlorophenyl)-N-(tetrahydro-2H-pyran-3-yl)pyridin-2-amine], the IC50 is 35 nM.

As for `CC(C)C[C@](C)(N)COc1ccc(-c2ccnc(NC3CCCOC3)c2)cc1C(F)(F)F` (mixture of isomers) [Example 475, 4-(4-((S)-2-amino-2,4-dimethylpentyloxy)-3-(trifluoromethyl)phenyl)-N-(tetrahydro-2H-pyran-3-yl)pyridin-2-amine], the IC50 was 15 nM.

Regarding `CC(C)C[C@](C)(N)COc1ccc(-c2ccnc(NC3CCCOC3)c2)cc1Cl` (single isomer, unassigned) [Example 339], the concentration for half-maximal inhibition (IC50) was found to be 17 nM.

On to `CC(C)C[C@](C)(N)COc1ccc(-c2ccnc(NC3CCCOC3)c2)cc1Cl` (single isomer, unassigned) [Example 340], for which the half-inhibitory concentration (IC50) worked out at 110 nM.

Consider `CC(C)C[C@](C)(N)COc1ccc(-c2ccnc(NC3CCCOC3)c2)cc1C(F)(F)F` (single isomer, unassigned) [Example 476], for which the half-maximal inhibitory concentration (IC50) is 125 nM.

Consider `CC(C)C[C@](C)(N)COc1ccc(-c2ccnc(NC3CCCOC3)c2)cc1C(F)(F)F` (single isomer, unassigned) [Example 477], for which the IC50 stood at 50 nM.

With `Cc1n[nH]c(C)c1-c1ccc(OC[C@@](C)(N)CC(C)C)c(F)c1` [Example 251, (S)-1-(4-(3,5-dimethyl-1H-pyrazol-4-yl)-2-fluorophenoxy)-2,4-dimethylpentan-2-amine], the IC50 stood at 310 nM.

Turning to `Cc1nc2nccc(-c3ccc(OC[C@@](C)(N)CC(C)C)c(C#N)c3)c2nc1C` [Example 252, (S)-2-((2-amino-2,4-dimethylpentyl)oxy)-5-(2,3-dimethylpyrido[2,3-b]pyrazin-8-yl)benzonitrile], the IC50 was determined as 285 nM.

Take `CC(C)C[C@](C)(N)COc1ccc(-c2ccnc3nccnc23)cc1F` [Example 253, (S)-1-(2-fluoro-4-(pyrido[2,3-b]pyrazin-8-yl)phenoxy)-2,4-dimethylpentan-2-amine]: the IC50 came out at 537 nM.

Consider `CC(C)C[C@](C)(N)COc1ccc(-c2ccnc3[nH]c(N)nc23)cc1C#N` [Example 254, (S)-2-((2-amino-2,4-dimethylpentyl)oxy)-5-(2-amino-3H-imidazo[4,5-b]pyridin-7-yl)benzonitrile], for which the IC50 was found to be 22 nM.

With `CC(C)C[C@](C)(N)COc1ccc(-c2ccnc3[nH]c(N)nc23)cc1C(F)(F)F` [Example 255, (S)-7-(4-((2-amino-2,4-dimethylpentyl)oxy)-3-(trifluoromethyl)phenyl)-3H-imidazo [4,5-b]pyridin-2-amine], the IC50 amounted to 42 nM.

Consider `CC(C)C[C@](C)(N)COc1ccc(-c2ccnc(Nc3nccs3)c2)cc1C(F)(F)F` [Example 256, (S)—N-(4-(4-((2-amino-2,4-dimethylpentyl)oxy)-3-(trifluoromethyl)phenyl)pyridin-2-yl)thiazol-2-amine], for which the concentration for half-maximal inhibition (IC50) is 0.82 nM.

With `CC(C)C[C@](C)(N)COc1ccc(-c2ccnc(Nc3nccs3)c2)cc1Cl` [Example 257, (S)—N-(4-(4-((2-amino-2,4-dimethylpentyl)oxy)-3-chlorophenyl)pyridin-2-yl)thiazol-2-amine], the concentration for half-maximal inhibition (IC50) was determined as 0.45 nM.

Consider `CC(C)C[C@](C)(N)COc1ccc(-c2ccnc(NC(=O)c3nccs3)c2)cc1C(F)(F)F` [Example 258, (S)—N-(4-(4-((2-amino-2,4-dimethylpentyl)oxy)-3-(trifluoromethyl)phenyl)pyridin-2-yl)thiazole-2-carboxamide], for which the concentration for half-maximal inhibition (IC50) was found to be 0.47 nM.

`Cc1cc(-c2ccnc3[nH]c(N)nc23)ccc1OC[C@@](C)(N)CC(C)C` [Example 259, (S)-7-(4-((2-amino-2,4-dimethylpentyl)oxy)-3-methylphenyl)-3H-imidazo[4,5-b]pyridin-2-amine]: the IC50 was 229 nM.

As for `CC(C)C[C@](C)(N)COc1ccc(-c2ccnc(NC(=O)c3nccs3)c2)cc1Cl` [Example 260, (S)—N-(4-(4-((2-amino-2,4-dimethylpentyl)oxy)-3-chlorophenyl)pyridin-2-yl)thiazole-2-carboxamide], the IC50 came out at 0.48 nM.

Consider `CC(C)C[C@](C)(N)COc1ccc(-c2ccnc(NC(=O)c3nccs3)c2)cc1C#N` [Example 261, (S)—N-(4-(4-((2-amino-2,4-dimethylpentyl)oxy)-3-cyanophenyl)pyridin-2-yl)thiazole-2-carboxamide], for which the IC50 turned out to be 0.36 nM.

Take `Cc1csc(Nc2cc(-c3ccc(OC[C@@](C)(N)CC(C)C)c(Cl)c3)ccn2)n1` [Example 262, (S)—N-(4-(4-((2-amino-2,4-dimethylpentyl)oxy)-3-chlorophenyl)pyridin-2-yl)-4-methylthiazol-2-amine]: the IC50 was 1.9 nM.

On to `Cc1cc(-c2ccnc3ccnn23)cnc1OC[C@](C)(N)CC(C)C` [Example 264, (R)-2,4-dimethyl-1-((3-methyl-5-(pyrazolo[1,5-a]pyrimidin-7-yl)pyridin-2-yl)oxy)pentan-2-amine], for which the IC50 stood at 79 nM.

Turning to `CC(C)C[C@@](C)(N)COc1ncc(-c2ccnc3ccnn23)cc1Cl` [Example 265, (R)-1-((3-chloro-5-(pyrazolo[1,5-a]pyrimidin-7-yl)pyridin-2-yl)oxy)-2,4-dimethylpentan-2-amine], the IC50 was found to be 55 nM.

Turning to `Cc1cc(-c2ccnc3cc(C4CC4)nn23)cnc1OC[C@](C)(N)CC(C)C` [Example 266, (R)-1-((5-(2-cyclopropylpyrazolo[1,5-a]pyrimidin-7-yl)-3-methylpyridin-2-yl)oxy)-2,4-dimethylpentan-2-amine], the half-maximal inhibitory concentration (IC50) came out at 265 nM.

On to `Cc1cc(-c2ccc(OC[C@@](C)(N)CC(C)C)c3ncsc23)ccn1` [Example 267, (S)-2,4-dimethyl-1-((7-(2-methylpyridin-4-yl)benzo[d]thiazol-4-yl)oxy)pentan-2-amine], for which the IC50 was determined as 362 nM.

In the case of `COC(=O)Nc1cc(-c2ccc(OC[C@@](C)(N)CC(C)C)c3ncsc23)ccn1` [Example 269, (S)-methyl (4-(4-((2-amino-2,4-dimethylpentyl)oxy)benzo[d]thiazol-7-yl)pyridin-2-yl)carbamate], the 50% inhibitory concentration (IC50) amounted to 3.4 nM.

Regarding `Cc1nc2c(-c3ccc(OC[C@@](C)(N)CC(C)C)c(C(F)(F)F)c3)ncnc2s1` [Example 270, (S)-2,4-dimethyl-1-(4-(2-methylthiazolo[5,4-d]pyrimidin-7-yl)-2-(trifluoromethyl)phenoxy)pentan-2-amine], the IC50 was 8.4 nM.

`Cc1nc2c(-c3ccc(OC[C@@](C)(N)CC(C)C)c(C#N)c3)ncnc2s1` [Example 271, (S)-2-((2-amino-2,4-dimethylpentyl)oxy)-5-(2-methylthiazolo[5,4-d]pyrimidin-7-yl)benzonitrile]: the concentration for half-maximal inhibition (IC50) is 4.1 nM.

Turning to `CC(C)C[C@](C)(N)COc1ncc(-c2ccnc3ccnn23)cc1Cl` [Example 272, (S)-1-((3-chloro-5-(pyrazolo[1,5-a]pyrimidin-7-yl)pyridin-2-yl)oxy)-2,4-dimethylpentan-2-amine], the IC50 is 0.8 nM.

Regarding `Cc1cc(-c2ccnc3ccnn23)cnc1OC[C@@](C)(N)CC(C)C` [Example 275, (S)-2,4-dimethyl-1-((3-methyl-5-(pyrazolo[1,5-a]pyrimidin-7-yl)pyridin-2-yl)oxy)pentan-2-amine], the concentration for half-maximal inhibition (IC50) amounted to 2.2 nM.

Regarding `CC(C)C[C@](C)(N)COc1ccc(-c2ccnc3ccnn23)nc1CF` [Example 276, (S)-1-((2-(fluoromethyl)-6-(pyrazolo[1,5-a]pyrimidin-7-yl)pyridin-3-yl)oxy)-2,4-dimethylpentan-2-amine], the half-inhibitory concentration (IC50) was determined as 0.9 nM.

In the case of `CC(C)CC(N)(CO)COc1cnc(-c2ccnc(C(F)F)c2)cc1C(F)F` (stereo not shown) [Example 277, 2-amino-2-(((2′,4-bis(difluoromethyl)-[2,4′-bipyridin]-5-yl)oxy)methyl)-4-methylpentan-1-ol], the half-maximal inhibitory concentration (IC50) was 1.8 nM.

As for `CC(C)C[C@](C)(N)COc1ccc(-c2ccnn3ccnc23)cc1` [Example 281, (S)-1-(4-(imidazo[1,2-b]pyridazin-8-yl)phenoxy)-2,4-dimethylpentan-2-amine], the half-inhibitory concentration (IC50) is 3.4 nM.

With `Cc1nc2c(-c3ccc(OC[C@@](C)(N)CC(C)C)c(Cl)c3)ccnc2[nH]1` [Example 282, (S)-1-(2-chloro-4-(2-methyl-3H-imidazo[4,5-b]pyridin-7-yl)phenoxy)-2,4-dimethylpentan-2-amine], the IC50 was determined as 36 nM.

As to `CC(C)C[C@](C)(N)COc1ccc(-c2ccnn3ccnc23)cc1C(F)(F)F` [Example 283, (S)-1-(4-(imidazo[1,2-b]pyridazin-8-yl)-2-(trifluoromethyl)phenoxy)-2,4-dimethylpentan-2-amine], the IC50 was 0.4 nM.

For `CC(C)C[C@](C)(N)COc1ccc(-c2ccnc3[nH]ncc23)cc1Cl` [Example 284, (S)-1-(2-chloro-4-(1H-pyrazolo[3,4-b]pyridin-4-yl)phenoxy)-2,4-dimethylpentan-2-amine], the half-inhibitory concentration (IC50) was 0.6 nM.

For `CC(C)C[C@](C)(N)COc1ccc(-c2cc(Cl)nn3ccnc23)cc1C#N` [Example 286, (S)-2-((2-amino-2,4-dimethylpentyl)oxy)-5-(6-chloroimidazo[1,2-b]pyridazin-8-yl)benzonitrile], the IC50 was 47 nM.
